# Source: patent US6525001B1, “Substituted pyrimidine and pyridine herbicides” (Mid-American Commercialization Corporation, priority 1997, dated 2003)
# Tests used:
# Assay in all cases: Test D
# Assay type in all cases: in vivo
# [1] = system: Italian ryegrass (Lolium multiflorum); parameters: key: 0 is no effect; 10 is complete control; details: PREEMERGENCE, Rate 62 g/ha
# [2] = system: wild buckwheat (Polygonum convolvulus); parameters: key: 0 is no effect; 10 is complete control; details: PREEMERGENCE, Rate 62 g/ha
# [3] = system: Italian ryegrass (Lolium multiflorum); parameters: key: 0 is no effect; 100 is complete control; details: PREEMERGENCE
Structure (SMILES),"Plant response rating, I. Ryegrass [1]","Plant response rating, Wild buckwheat [2]","Plant response rating, I. Ryegrass ([3]; Rate 125 g/ha)","Plant response rating, I. Ryegrass ([3]; Rate 250 g/ha)"
CCc1cnc(-c2ccc(C(F)(F)F)cc2)nc1Cc1cccc(C(F)(F)F)c1 [Compound 22],0,0,–,–
"Cc1cnc(-c2ccc(C(F)(F)F)cc2)nc1Cc1cccc(C(F)(F)F)c1 [Example 1, 5-methyl-2-[4-(trifluoromethyl)phenyl]-4-[[3-(trifluoromethyl)phenyl]methyl]pyrimidine]",–,–,100,100
